Reference: US12383533B2 (Frost Biologic, Inc., priority 2014, dated 2025)

Key:
A2780 cells = experiment: Cell Viability Assay (ATPlite 1step), A2780; format: cell-based; conditions: Homo sapiens, 72 hours; for percent inhibition of cell viability at 4 µM: A2780, 4 uM compound, read-out: Cell Viability % inhibition A2780 (4 uM Cpd); for percent inhibition of cell viability at 20 µM: A2780, 20 uM compound, read-out: Cell Viability % inhibition A2780 (20 uM Cpd)
Protocol: (§1) Cell Viability Assay Protocol
(§2) Cells were trypsinized, counted, and re-seeded into a 384-well tissue culture plate at 1000 cells per well in […] media. Cells were incubated at 37° C. in an atmosphere of 5% CO2 for 24 hours. Experimental compounds, initially dissolved in DMSO and diluted further in media were added to the wells and incubated for 72 hours. Cell viability was measured using the ATPlite 1step Luminescence Detection Assay system (Perkin Elmer) as described in the Assay kit instructions.
(§3) Cell Culture Lines and Media: (1) A2780 cells were cultured in RPMI media with 10% FBS and 1% antibiotics. Cells were typically split every 3-5 days at a 1:10 dilution; (2) PC3 cells were cultured in RPMI media with 10% FBS and 1% antibiotics. Cells were typically split every 3-5 days at a 1:4 dilution; (3) MCF-7 cells were grown in K-12F media with 10% FBS and 1% antibiotics. Cells were typically split every 3-5 days at a 1:10 dilution.

PC3 cells = experiment: Cell Viability Assay (ATPlite 1step), PC3; format: cell-based; conditions: Homo sapiens, PC-3, 72 hours; for percent inhibition of cell viability at 4 µM: PC3, 4 uM compound, read-out: Cell Viability % inhibition PC3 (4 uM Cpd); for percent inhibition of cell viability at 20 µM: PC3, 20 uM compound, read-out: Cell Viability % inhibition PC3 (20 uM Cpd)
Protocol: as §1, §2, §3

SMILES | percent inhibition of cell viability at 4 µM (A2780 cells) | percent inhibition of cell viability at 20 µM (A2780 cells) | percent inhibition of cell viability at 4 µM (PC3 cells) | percent inhibition of cell viability at 20 µM (PC3 cells)
O=C(Nc1ccc(-c2ccsc2)cn1)c1cncnc1 [Compound 7, N-[5-(thiophen-3-yl)pyridin-2-yl]pyrimidine-5-carboxamide] | 81.3% | 90.9% | 44.1% | 41.8%
O=C(Nc1ccc(-c2cccc(OC3CC3)c2)cn1)c1cncnc1 [Compound 26, N-{5-[3-(cyclopropyloxy)phenyl]pyridin-2-yl}pyrimidine-5-carboxamide] | 76% | 79.9% | 59.3% | 67.5%
O=C(Nc1ccc(-c2cccc(-c3ccccc3)c2)cn1)c1cncnc1 [Compound 40, N-[5-(biphenyl-3-yl)pyridin-2-yl]pyrimidine-5-carboxamide] | 61% | 72% | 48.3% | 52.5%
O=C(Nc1ccc(-c2cccc(C3CC3)c2)cn1)c1cnc(O)nc1 [Compound 60, N-[5-(3-cyclopropylphenyl)pyridin-2-yl]-2-hydroxypyrimidine-5-carboxamide] | 77.1% | 83.7% | 48.8% | 80.6%
O=C(Nc1ccc(-c2cccc(C3CC3)c2)cn1)c1cnccc1F [Compound 39, N-[5-(3-cyclopropylphenyl)pyridin-2-yl]-4-fluoropyridine-3-carbox-amide] | 55.6% | 58.7% | 19.2% | 28.7%
Cc1ncc(C(=O)Nc2ccc(-c3cccc(OCCN4CCN(C)CC4)c3)cn2)cn1 [Compound 38, N-{-5-[3-(2-(4-methylpiperazin-1-yl)ethoxy)phenyl]pyridin-2-yl}-2-methylpyrimidine-5-carboxamide] | 51.7% | 68.7% | 39.9% | 61.2%
CN1CCN(c2cccc(-c3ccc(NC(=O)c4cncnc4)nc3)c2)CC1 [Compound 34, N-{5-[3-(4-methylpiperazin-1-yl)phenyl]pyridin-2-yl}pyrimidine-5-carboxamide] | 51.6% | 49.4% | 19.8% | 30.3%
O=C(Nc1ccc(-c2cccc(C3CCC3)c2)cn1)c1cncnc1 [Compound 45, N-[5-(3-cyclobutylphenyl)pyridin-2-yl]pyrimidine-5-carboxamide] | 87.6% | 86.4% | 80.8% | 83.3%
O=C(Nc1ccc(-c2cccc(NC3CC3)c2)cn1)c1cncnc1 [Compound 30, N-{5-[3-(cyclopropylamino)phenyl]pyridin-2-yl}pyrimidine-5-carboxamide] | 77.4% | 78.7% | 63.4% | 71.9%
Cc1ccc(C(=O)Nc2ccc(-c3cccc(OC4CC4)c3)cn2)cn1 [Compound 29, N-{5-[3-(cyclopropyloxy)phenyl]pyridin-2-yl}-6-methylpyridine-3-carboxamide] | 74.4% | 83.1% | 60.5% | 69.5%
Cc1ccc(C(=O)Nc2ccc(-c3cccc(C4CC4)c3)cn2)cn1 [Compound 25, N-[5-(3-cyclopropylphenyl)pyridin-2-yl]-6-methylpyridine-3-carboxamide] | 70.6% | 81.1% | 50.3% | 63.4%
CN1CCN(c2cccc(-c3ccc(NC(=O)c4cccnc4)nc3)c2)CC1 [Compound 36, N-{5-[3-(4-methylpiperazin-1-yl)phenyl]pyridin-2-yl}pyridine-3-carboxamide] | 51.3% | 55.5% | 24.3% | 42.5%
O=C(Nc1ccc(-c2ccccc2Cl)cn1)c1cncnc1 [Compound 4, N-[5-(2-chlorophenyl)pyridin-2-yl]pyrimidine-5-carboxamide] | 79.7% | 87.5% | 36% | 44.2%
O=C(Nc1ccc(-c2cccc(C3CC3)c2)cn1)c1cccnc1 [Compound 24, N-[5-(3-cyclopropylphenyl)pyridin-2-yl]pyridine-3-carboxamide] | 73.4% | 72.2% | 53.1% | 67.5%
COc1ncc(C(=O)Nc2ccc(-c3cccc(OC4CC4)c3)cn2)cn1 [Compound 57, N-{5-[3-(cyclopropyloxy)phenyl]pyridin-2-yl}-2-methoxypyrimidine-5-carboxamide] | 88.3% | 89.8% | 85.1% | 89%
Cc1ncc(C(=O)Nc2ccc(-c3cc(O)cc(C4CC4)c3)cn2)cn1 [Compound 65, N-[5-(3-cyclopropyl-5-hydroxyphenyl)pyridin-2-yl]-2-methylpyrimidine-5-carboxamide] | 85.9% | 89.8% | 80.5% | 82.2%
COc1ccc(Cl)cc1-c1ccc(NC(=O)c2cncnc2)nc1 [Compound 21, N-[5-(5-chloro-2-methoxyphenyl)pyridin-2-yl]pyrimidine-5-carboxamide] | 70.4% | 62.4% | 22.8% | 15.3%
Cc1ccc(C(=O)Nc2ccc(-c3cccc(N4CCN(C)CC4)c3)cn2)cn1 [Compound 37, N-{5-[3-(4-methylpiperazin-1-yl)phenyl]pyridin-2-yl}-6-methylpyridine-3-carboxamide] | 59.2% | 70.8% | 35.4% | 61%
O=C(Nc1ccc(C2CC2)cn1)c1cncnc1 [Compound 6, N-(5-cyclopropylpyridin-2-yl)pyrimidine-5-carboxamide] | 75.5% | 76.4% | 27% | 29.9%
O=C(Nc1ccc(-c2ccc(Cl)cc2)cn1)c1cncnc1 [Compound 2, N-[5-(4-chlorophenyl)pyridin-2-yl]pyrimidine-5-carboxamide] | 19.5% | 65.2% | 4.9% | 17.4%
COc1ccc(-c2ccc(NC(=O)c3cncnc3)nc2)cc1Cl [Compound 22, N-[5-(3-chloro-4-methoxyphenyl)pyridin-2-yl]pyrimidine-5-carboxamide] | 69% | 67.9% | 20.7% | 11.5%
NCCNc1ncc(C(=O)Nc2ccc(-c3cccc(C4CC4)c3)cn2)cn1 [Compound 56, 2-[(2-aminoethyl)amino]-N-[5-(3-cyclopropylphenyl)pyridin-2-yl]pyrimidine-5-carboxamide] | 88% | 97.6% | 81.4% | 97.4%
Cc1ncc(C(=O)Nc2ccc(-c3cccc(N4CCN(C)CC4)c3)cn2)cn1 [Compound 35, N-{5-[3-(4-methylpiperazin-1-yl)phenyl]pyridin-2-yl}-2-methylpyrimidine-5-carboxamide] | 54.6% | 75.9% | 39.6% | 58.8%
O=C(Nc1ccc(-c2cccc(NC3CC3)c2)cn1)c1cccnc1 [Compound 32, N-{5-[3-(cyclopropylamino)phenyl]pyridin-2-yl}pyridine-3-carboxamide] | 71.9% | 77% | 57.3% | 57.6%
COc1ncc(C(=O)Nc2ccc(-c3cccc(C4CC4)c3)cn2)cn1 [Compound 59, N-[5-(3-cyclopropylphenyl)pyridin-2-yl]-2-methoxypyrimidine-5-carboxamide] | 87.8% | 90.4% | 82.6% | 88.5%
